One data set deals with CYP2C9 (Homo sapiens (Human), UniProt P11712). Put plainly: reversible inhibition of CYP2C9. It counts as in vitro ADME.
In a further data set the target is CYP3A4 (Homo sapiens (Human), UniProt P08684). Description: time-dependent inhibition (TDI) of CYP3A4. The class given is in vitro ADME. The settings on record: for time-dependent inhibition (TDI) of the CYP3A4 enzyme: result in words.
A further data set addresses human PDE10A2 (Homo sapiens (Human), UniProt Q9Y233). Put plainly: PDE10 fluorescence polarization (IMAP FP) inhibition assay. It counts as biochemical. As for the experimental part:
The activity of the compounds in accordance with the present invention as PDE10 inhibitors may be readily determined without undue experimentation using a fluorescence polarization (FP) methodology that is well known in the art (Huang, W., et al., J. Biomol Screen, 2002, 7: 215).
In a typical experiment the PDE10 inhibitory activity of the compounds of the present invention was determined in accordance with the following experimental method. PDE10A2 was amplified from human fetal brain cDNA (Clontech, Mountain View, Calif.) using a forward primer corresponding to nucleotides 56-77 of human PDE10A2 (Accession No. AF127480, Genbank Identifier 4894716), containing a Kozak consensus sequence, and a reverse primer corresponding to nucleotides 2406-2413 of human PDE10A2 (Accession No. AF127480, Genbank Identifier 4894716). Amplification with Easy-A polymerase (Stratagene, La Jolla, Calif.) was 95° C. for 2 minutes followed by thirty three cycles of 95° C. for 40 seconds, 55° C. for 30 seconds, and 72° C. for 2 minutes 48 seconds. Final extension was 72° C. for 7 minutes. The PCR product was TA cloned into pcDNA3.2-TOPO (Invitrogen, Carlsbad, Calif.) according to standard protocol. AD293 cells with 70-80% confluency were transiently transfected with human PDE10A2/pcDNA3.2-TOPO using Lipofectamine 2000 according to manufacturer specifications (Invitrogen, Carlsbad, Calif.). Cells were harvested 48 hours post-transfection and lysed by sonication (setting 3, 10×5 sec pulses) in a buffer containing 20 mM HEPES, 1 mM EDTA and protease inhibitor cocktail (Roche). Lysate was collected by centrifugation at 75,000×g for 20 minutes. Supernatant containing the cytoplasmic fraction was used for evaluation of PDE10A2 activity. The fluorescence polarization assay for cyclic nucleotide phosphodiesterases was performed using an IMAP® FP kit supplied by Molecular Devices, Sunnyvale, Calif. (product # R8139). IMAP® technology has been applied previously to phosphodiesterase assays (Huang, W., et al., J. Biomol Screen, 2002, 7: 215). Assays were performed at room temperature in 384-well microtiter plates with an incubation volume of 20.2 μL. Solutions of test compounds were prepared in DMSO and serially diluted with DMSO to yield 8 μL of each of 10 solutions differing by 3-fold in concentration, at 32 serial dilutions per plate. […] 0% of inhibition is determined by using DMSO (1% final concentrations).
A Labcyte Echo 555 (Labcyte, Sunnyvale, Calif.) is used to dispense 200 nL from each well of the titration plate to the 384 well assay plate. A solution of enzyme (1/1600 dilution from aliquots; sufficient to produce 20% substrate conversion) and a separate solution of FAM-labeled cAMP PDE from Molecular Devices (product # R7506), at a final concentration of 50 nM are made in the assay buffer (10 mM Tris HCl, pH 7.2, 10 mM MgCl2, 0.05% NaN3 0.01% Tween-20, and 1 mM DTT). The enzyme and the substrate are then added to the assay plates in two consecutive additions of 10 μL, and then shaken to mix. The reaction is allowed to proceed at room temperature for 30 minutes. […] The enzymatic reaction is stopped by addition of 60 μL of the binding solution to each well of the assay plates and the plates are sealed and shaken for 10 seconds. The plate was incubated at room temperature for at least one hour prior to determining the fluorescence polarization (FP). The parallel and perpendicular fluorescence of each well of the plate was measured using a Perkin Elmer EnVision™ plate reader (Waltham, Mass.).
Fluorescence polarization (mP) was calculated from the parallel (S) and perpendicular (P) fluorescence of each sample well and the analogous values for the median control well, containing only substrate (So and Po), using the following equation: Polarization (mP)=1000*(S/So−P/Po)/(S/So+P/Po).
Dose-inhibition profiles for each compound were characterized by fitting the mP data to a four-parameter equation given below.

The mark [1] stands for this setting: comparison table with Compounds A, B, C, read-out: PDE10 Ki.

This is an account of results in US9428492B2, “Secondary alcohol substituted triazoles as PDE10 inhibitors” (Merck Sharp & Dohme Corp., priority 2012, dated 2016).

pIC50, pKi: −log10 of the molar value. Where two headings read alike, the source gives them in different places.

CYP3A4, sequence (P08684 whole entry): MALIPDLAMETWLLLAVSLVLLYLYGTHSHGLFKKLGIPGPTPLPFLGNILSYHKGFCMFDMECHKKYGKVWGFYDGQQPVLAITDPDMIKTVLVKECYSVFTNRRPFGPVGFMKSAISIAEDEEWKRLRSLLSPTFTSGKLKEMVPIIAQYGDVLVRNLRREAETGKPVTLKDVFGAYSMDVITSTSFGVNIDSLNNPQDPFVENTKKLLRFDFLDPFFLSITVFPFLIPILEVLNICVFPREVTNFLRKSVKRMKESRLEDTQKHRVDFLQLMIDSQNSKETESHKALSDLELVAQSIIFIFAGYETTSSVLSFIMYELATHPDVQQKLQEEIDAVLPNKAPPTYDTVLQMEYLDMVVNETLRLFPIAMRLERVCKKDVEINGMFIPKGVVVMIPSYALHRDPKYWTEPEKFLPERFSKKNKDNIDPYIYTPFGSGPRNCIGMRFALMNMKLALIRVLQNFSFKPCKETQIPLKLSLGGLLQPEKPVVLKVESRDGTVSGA
CYP2C9, sequence (P11712 whole entry): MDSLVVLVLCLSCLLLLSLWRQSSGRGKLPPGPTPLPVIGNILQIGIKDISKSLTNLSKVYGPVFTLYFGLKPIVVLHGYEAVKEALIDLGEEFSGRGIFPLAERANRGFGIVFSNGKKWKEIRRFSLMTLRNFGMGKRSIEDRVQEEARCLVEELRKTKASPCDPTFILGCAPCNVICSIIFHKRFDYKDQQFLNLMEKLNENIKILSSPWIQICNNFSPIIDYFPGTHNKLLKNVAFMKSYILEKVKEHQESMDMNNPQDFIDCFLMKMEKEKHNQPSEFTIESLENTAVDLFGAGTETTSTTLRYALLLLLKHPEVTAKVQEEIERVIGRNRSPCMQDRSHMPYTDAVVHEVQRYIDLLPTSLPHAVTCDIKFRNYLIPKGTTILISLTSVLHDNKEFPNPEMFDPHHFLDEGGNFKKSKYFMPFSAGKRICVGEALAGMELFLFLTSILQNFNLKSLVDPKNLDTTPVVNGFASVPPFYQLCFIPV
human PDE10A2, sequence (Q9Y233 267-1055): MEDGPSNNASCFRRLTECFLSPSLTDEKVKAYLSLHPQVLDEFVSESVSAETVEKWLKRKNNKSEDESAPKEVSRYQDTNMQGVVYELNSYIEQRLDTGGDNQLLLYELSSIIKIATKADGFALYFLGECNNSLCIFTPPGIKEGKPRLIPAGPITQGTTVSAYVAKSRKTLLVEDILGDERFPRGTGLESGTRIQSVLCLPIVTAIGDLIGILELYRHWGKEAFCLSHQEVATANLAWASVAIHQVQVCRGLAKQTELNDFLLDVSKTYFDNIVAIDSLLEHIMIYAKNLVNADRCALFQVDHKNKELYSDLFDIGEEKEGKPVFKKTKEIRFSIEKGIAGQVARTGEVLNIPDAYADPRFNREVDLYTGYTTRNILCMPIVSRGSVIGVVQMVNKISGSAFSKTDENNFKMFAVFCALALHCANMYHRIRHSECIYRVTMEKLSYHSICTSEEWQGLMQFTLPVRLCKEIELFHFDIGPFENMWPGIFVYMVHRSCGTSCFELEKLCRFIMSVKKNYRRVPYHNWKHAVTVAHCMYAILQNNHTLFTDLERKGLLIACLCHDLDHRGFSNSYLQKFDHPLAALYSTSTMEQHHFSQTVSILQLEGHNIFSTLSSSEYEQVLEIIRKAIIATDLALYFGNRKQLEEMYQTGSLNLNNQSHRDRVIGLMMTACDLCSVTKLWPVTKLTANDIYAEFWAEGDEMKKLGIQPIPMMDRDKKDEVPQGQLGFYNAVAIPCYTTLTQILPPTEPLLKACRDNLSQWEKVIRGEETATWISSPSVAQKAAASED

`Cc1nc(N2CC(c3nc4ccccc4n3C)C2)cc(-n2nc(C)nc2C(O)C(F)(F)F)n1` (single isomer, unassigned) [Example 3b, 2,2,2-trifluoro-1-(3-methyl-1-(2-methyl-6-(3-(1-methyl-1H-benzo[d]imidazol-2-yl)azetidin-1-yl)pyrimidin-4-yl)-1H-1,2,4-triazol-5-yl)ethanol]: on CYP2C9, the negative logarithm of the IC50 (pIC50) is under 4.30. In addition, at CYP3A4, the “TDI CYP3A4 shift ratio” value was determined as 1 and the “time-dependent inhibition (TDI) of the CYP3A4 enzyme” value (from here on “time-dependent inhibition (TDI)”) was “do not exhibit TDI of CYP3A4”. Besides, the pKi at human PDE10A2 (setting [1]) is 10.22. The pKi at human PDE10A2 (read-out: PDE10a Ki) was 10.22.
As for `CCC(O)c1nc(C)nn1-c1cc(N2CC(c3nc4ccccc4n3C)C2)nc(C)n1` (single isomer, unassigned) [Example 4b, 1-(3-methyl-1-(2-methyl-6-(3-(1-methyl-1H-benzo[d]imidazol-2-yl)azetidin-1-yl)pyrimidin-4-yl)-1H-1,2,4-triazol-5-yl)propan-1-ol], the negative-log IC50 (pIC50) at CYP2C9 is under 4.30. Further, the “TDI CYP3A4 shift ratio” value at CYP3A4 was determined as 1. Further, the “time-dependent inhibition (TDI)” value on CYP3A4 is recorded as “do not exhibit TDI of CYP3A4”. Also, the pKi at human PDE10A2 (setting [1]) was 9.29; on human PDE10A2 (read-out: PDE10a Ki), 9.39.
For `Cc1nc(N2CC(c3nc4ccccc4n3C)C2)cc(-n2nc(C)nc2C(O)C2CC2)n1` (single isomer, unassigned) [Example 6a, cyclopropyl(3-methyl-1-(2-methyl-6-(3-(1-methyl-1H-benzo[d]imidazol-2-yl)azetidin-1-yl)pyrimidin-4-yl)-1H-1,2,4-triazol-5-yl)methanol], in that order: under 4.30, 1, “do not exhibit TDI of CYP3A4”, 9.77 and 9.77.
`CCC(O)c1nc(C)nn1-c1cc([C@@H]2C[C@H]2c2nc3ccccc3n2C)nc(C)n1` (single isomer, unassigned) [Example 19a] had a negative logarithm of the IC50 (pIC50) on CYP2C9 of under 4.30. Besides, the “time-dependent inhibition (TDI)” value on CYP3A4 is “do not exhibit TDI of CYP3A4”.
With `Cc1nc([C@@H]2C[C@H]2c2nc3ccccc3n2C)cc(-n2nc(C)nc2C(C)(C)O)n1` [Compound A, 2-(3-methyl-1-(2-methyl-6-((1R,2R)-2-(1-methyl-1H-benzo[d]imidazol-2-yl)cyclopropyl)pyrimidin-4-yl)-1H-1,2,4-triazol-5-yl)propan-2-ol, reference compound], on CYP2C9, the negative-log IC50 (pIC50) is under 4.30. Also, the “TDI CYP3A4 shift ratio” value on CYP3A4 was determined as 1. Further, the pKi at human PDE10A2 (setting [1]) is 8.38.
As to `CO[C@@H](C)c1nc(C)nn1-c1cc([C@@H]2C[C@H]2c2nc3ccccc3n2C)nc(C)n1` [Compound B, 2-((1R,2R)-2-(6-(5-((S)-1-methoxyethyl)-3-methyl-1H-1,2,4-triazol-1-yl)-2-methylpyrimidin-4-yl)cyclopropyl)-1-methyl-1H-benzo[d]imidazole, reference compound], the negative-log IC50 (pIC50) at CYP2C9 was 4.98. For the same molecule, the “TDI CYP3A4 shift ratio” value on CYP3A4 came to 1. Also, the pKi at human PDE10A2 (setting [1]) was 8.68.
On CYP2C9, `COCc1nc(C)nn1-c1cc([C@@H]2C[C@H]2c2nc3ccccc3n2C)nc(C)n1` [Compound C, 2-((1R,2R)-2-(6-(5-(methoxymethyl)-3-methyl-1H-1,2,4-triazol-1-yl)-2-methylpyrimidin-4-yl)cyclopropyl)-1-methyl-1H-benzo[d]imidazole, reference compound] had a negative logarithm of the IC50 (pIC50) of 4.34. At CYP3A4, the “TDI CYP3A4 shift ratio” value is over 1.98 and the “time-dependent inhibition (TDI)” value is “exhibited time-dependent inhibition (TDI) of the CYP3A4 enzyme”. Also, the pKi at human PDE10A2 (setting [1]) was 9.31.
`Cc1nc(N2CC(c3nc4ccccc4n3C)C2)cc(-n2nc(C)nc2[C@H](C)O)n1` [Example 1, (S)-1-(3-methyl-1-(2-methyl-6-(3-(1-methyl-1H-benzo[d]imidazol-2-yl)azetidin-1-yl)pyrimidin-4-yl)-1H-1,2,4-triazol-5-yl)ethanol] showed a pIC50 at CYP2C9 of under 4.30. Moreover, at CYP3A4, the “TDI CYP3A4 shift ratio” value is recorded as 1 and the “time-dependent inhibition (TDI)” value is “do not exhibit TDI of CYP3A4”. At human PDE10A2 (read-out: PDE10a Ki), the negative logarithm of the Ki (pKi) is 9.64.
In the case of `COc1nc(N2CC(c3nc4ccccc4n3C)C2)cc(-n2nc(C)nc2C(C)O)n1` (stereo not shown) [Example 9, 1-(1-(2-methoxy-6-(3-(1-methyl-1H-benzo[d]imidazol-2-yl)azetidin-1-yl)pyrimidin-4-yl)-3-methyl-1H-1,2,4-triazol-5-yl)ethanol], the negative-log Ki (pKi) on human PDE10A2 (read-out: PDE10a Ki) was 8.92.
Same read-out and setting: with `Cc1nc(C(C)O)n(-c2cc(N3CC(c4nc5ccccc5n4C)C3)nc(C3CC3)n2)n1` (stereo not shown) [Example 10, 1-(1-(2-cyclopropyl-6-(3-(1-methyl-1H-benzo[d]imidazol-2-yl)azetidin-1-yl)pyrimidin-4-yl)-3-methyl-1H-1,2,4-triazol-5-yl)ethanol] the figure was 9.68; with `Cc1nc(N2CC(c3nc4ccccc4n3C)C2)cc(-n2nc(C)nc2C(O)CF)n1` (stereo not shown) [Example 12, 2-fluoro-1-(3-methyl-1-(2-methyl-6-(3-(1-methyl-1H-benzo[d]imidazol-2-yl)azetidin-1-yl)pyrimidin-4-yl)-1H-1,2,4-triazol-5-yl)ethanol], 9.47.
Still for that read-out and setting: with `Cc1nc([C@@H]2C[C@H]2c2nc3ccccc3n2C)cc(-n2nc(C)nc2[C@H](O)c2ccccc2)n1` [Example 15, (R)-(3-methyl-1-(2-methyl-6-((1R,2R)-2-(1-methyl-1H-benzo[d]imidazol-2-yl)cyclopropyl)pyrimidin-4-yl)-1H-1,2,4-triazol-5-yl)(phenyl)methanol] the figure was 10.05; with `Cc1nc([C@@H]2C[C@H]2c2nc3ccccc3n2C)cc(-n2nc(C)nc2[C@@H](O)c2ccccc2)n1` [Example 16, (S)-(3-methyl-1-(2-methyl-6-((1R,2R)-2-(1-methyl-1H-benzo[d]imidazol-2-yl)cyclopropyl)pyrimidin-4-yl)-1H-1,2,4-triazol-5-yl)(phenyl)methanol], 9.21; with `Cc1nc([C@H](C)O)n(-c2cc([C@@H]3C[C@H]3c3nc4ccccc4n3C)nc(C(F)(F)F)n2)n1` [Example 17, (S)-1-(3-methyl-1-(6-((1R,2R)-2-(1-methyl-1H-benzo[d]imidazol-2-yl)cyclopropyl)-2-(trifluoromethyl)pyrimidin-4-yl)-1H-1,2,4-triazol-5-yl)ethanol], 8.55.
Same read-out and setting: under `Cc1nc([C@H](C)O)n(-c2cc([C@@H]3C[C@H]3c3nc4ccccc4n3C)nc(C3CC3)n2)n1` [Example 18, (S)-1-(1-(2-cyclopropyl-6-((1R,2R)-2-(1-methyl-1H-benzo[d]imidazol-2-yl)cyclopropyl)pyrimidin-4-yl)-3-methyl-1H-1,2,4-triazol-5-yl)ethanol] stands 9.44; under `Cc1nc(C2C[C@H]2c2nc3ccccc3n2C)cc(-n2nc(C)nc2C(O)C(F)(F)F)n1` (stereo partly drawn) [Example 20, 2,2,2-trifluoro-1-(3-methyl-1-(2-methyl-6-((1R,2R)-2-(1-methyl-1H-benzo[d]imidazol-2-yl)cyclopropyl)pyrimidin-4-yl)-1H-1,2,4-triazol-5-yl)ethanol], 9.26; under `Cc1nc([C@@H]2C[C@H]2c2nc3ccccc3n2C)cc(-n2nc(C)nc2C(O)C(C)C)n1` (stereo partly drawn) [Example 21, 2-methyl-1-(3-methyl-1-(2-methyl-6-((1R,2R)-2-(1-methyl-1H-benzo[d]imidazol-2-yl)cyclopropyl)pyrimidin-4-yl)-1H-1,2,4-triazol-5-yl)propan-1-ol], 9.33.

A word on the pIC50: it is the IC50 on a negative log10 scale, so that one unit is a factor of ten. Read a low pIC50 as a high IC50. As usually defined, the pKi is the negative decadic logarithm of the Ki, by convention in mol/L.
